Results as given in ChEMBL document CHEMBL1201862, “PubChem BioAssay data set” (2004).
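Exposure lasted 48 hours, with cells grown in 96-well plates and compounds tested at five concentrations. GI50: concentration for 50% inhibition of growth.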 The source made the active and inactive calls. Cut-off read from the data, not from the text of the source: active = GI50 up to about 1.1 µM and inactive = higher.

Key:
Test in all cases: growth of human tumour cells (NCI), 48 h
TK-10 = test system: TK-10
Malme-3M = test system: Malme-3M
OVCAR-4 = test system: OVCAR-4
NCI-H460 = test system: NCI-H460
MCF7 = test system: MCF7
SK-MEL-2 = test system: SK-MEL-2
HCT-15 = test system: HCT-15
DU-145 = test system: DU-145
SK-MEL-28 = test system: SK-MEL-28
SN12C = test system: SN12C
CAKI-1 = test system: CAKI-1
OVCAR-5 = test system: OVCAR-5
SF-295 = test system: SF-295
HL-60 = test system: HL-60
U-251 = test system: U-251
HOP-62 = test system: HOP-62
UO-31 = test system: UO-31
DLD-1 = test system: DLD-1
M19-MEL = test system: M19-MEL

Q: `CCOc1ccccc1/C=C(/C#N)C(N)=O` was tested. Which GI50 (TK-10) did it give?
A: > 100 µM (inactive)

Q: And the GI50 (Malme-3M)?
A: > 100 µM (inactive)

Q: And the GI50 (OVCAR-4)?
A: > 100 µM (inactive)

Q: And the GI50 (NCI-H460)?
A: > 100 µM (inactive)

Q: What about the GI50 (MCF7) of the same molecule?
A: 41.7 µM (inactive)

Q: And the GI50 (SK-MEL-2)?
A: > 100 µM (inactive)

Q: What about the GI50 (HCT-15) of the same molecule?
A: 59 µM

Q: And the GI50 (DU-145)?
A: > 100 µM (inactive)

Q: And the GI50 (SK-MEL-28)?
A: > 100 µM (inactive)

Q: And the GI50 (SN12C)?
A: > 100 µM (inactive)

Q: And the GI50 (CAKI-1)?
A: > 100 µM (inactive)

Q: What about the GI50 (OVCAR-5) of the same molecule?
A: > 100 µM (inactive)

Q: And the GI50 (SF-295)?
A: > 100 µM (inactive)

Q: And the GI50 (HL-60)?
A: 21.6 µM (inactive)

Q: And the GI50 (U-251)?
A: > 100 µM (inactive)

Q: What about the GI50 (HOP-62) of the same molecule?
A: > 100 µM (inactive)

Q: And the GI50 (UO-31)?
A: 85.3 µM (inactive)

Q: `CC(C)=CCC/C(C)=C/CC/C(C)=C/CCN(C)CCO` was tested. Which GI50 (TK-10) did it give?
A: 6 µM (inactive)

Q: And the GI50 (Malme-3M)?
A: 3.54 µM (inactive)

Q: And the GI50 (OVCAR-4)?
A: 13.9 µM (inactive)

Q: What about the GI50 (NCI-H460) of the same molecule?
A: 4.78 µM (inactive)

Q: What about the GI50 (MCF7) of the same molecule?
A: 2.45 µM (inactive)

Q: What about the GI50 (SK-MEL-2) of the same molecule?
A: 13.2 µM (inactive)

Q: And the GI50 (HCT-15)?
A: 3.95 µM

Q: And the GI50 (DU-145)?
A: 12.7 µM (inactive)

Q: What about the GI50 (SK-MEL-28) of the same molecule?
A: 8.45 µM (inactive)

Q: What about the GI50 (SN12C) of the same molecule?
A: 12.3 µM (inactive)

Q: And the GI50 (CAKI-1)?
A: 6.32 µM (inactive)

Q: What about the GI50 (OVCAR-5) of the same molecule?
A: 6.46 µM (inactive)

Q: What about the GI50 (SF-295) of the same molecule?
A: 3.61 µM (inactive)

Q: And the GI50 (HL-60)?
A: 1.95 µM (inactive)

Q: What about the GI50 (U-251) of the same molecule?
A: 3.3 µM (inactive)

Q: And the GI50 (HOP-62)?
A: 6.78 µM (inactive)

Q: And the GI50 (UO-31)?
A: 12.1 µM (inactive)

Q: Which GI50 (TK-10) does the source give for `COc1ccc(C(=C(I)c2ccccc2)c2ccc(OC)cc2)cc1` here?
A: > 100 µM (inactive)

Q: And the GI50 (Malme-3M)?
A: > 100 µM (inactive)

Q: And the GI50 (OVCAR-4)?
A: > 100 µM (inactive)

Q: And the GI50 (NCI-H460)?
A: > 100 µM (inactive)

Q: And the GI50 (MCF7)?
A: 21.6 µM (inactive)

Q: What about the GI50 (SK-MEL-2) of the same molecule?
A: > 100 µM (inactive)

Q: What about the GI50 (HCT-15) of the same molecule?
A: 65.6 µM

Q: What about the GI50 (DU-145) of the same molecule?
A: > 100 µM (inactive)

Q: What about the GI50 (SK-MEL-28) of the same molecule?
A: > 100 µM (inactive)

Q: What about the GI50 (SN12C) of the same molecule?
A: > 100 µM (inactive)

Q: What about the GI50 (CAKI-1) of the same molecule?
A: > 100 µM (inactive)

Q: What about the GI50 (OVCAR-5) of the same molecule?
A: > 100 µM (inactive)

Q: What about the GI50 (SF-295) of the same molecule?
A: > 100 µM (inactive)

Q: What about the GI50 (HL-60) of the same molecule?
A: 64.9 µM (inactive)

Q: And the GI50 (U-251)?
A: > 100 µM (inactive)

Q: What about the GI50 (HOP-62) of the same molecule?
A: > 100 µM (inactive)

Q: What about the GI50 (UO-31) of the same molecule?
A: > 100 µM (inactive)

Q: How did the GI50 (TK-10) turn out when `CC(O)C1CC1(CO)CNc1cc(Cl)nc(N)n1` (stereo not drawn) was run?
A: > 100 µM (inactive)

Q: What about the GI50 (Malme-3M) of the same molecule?
A: > 100 µM (inactive)

Q: What about the GI50 (OVCAR-4) of the same molecule?
A: > 100 µM (inactive)

Q: And the GI50 (NCI-H460)?
A: > 100 µM (inactive)

Q: What about the GI50 (MCF7) of the same molecule?
A: > 100 µM (inactive)

Q: What about the GI50 (SK-MEL-2) of the same molecule?
A: > 100 µM (inactive)

Q: What about the GI50 (HCT-15) of the same molecule?
A: > 100 µM

Q: What about the GI50 (DU-145) of the same molecule?
A: > 100 µM (inactive)

Q: What about the GI50 (SK-MEL-28) of the same molecule?
A: > 100 µM (inactive)

Q: What about the GI50 (SN12C) of the same molecule?
A: > 100 µM (inactive)

Q: And the GI50 (CAKI-1)?
A: > 100 µM (inactive)

Q: What about the GI50 (OVCAR-5) of the same molecule?
A: > 100 µM (inactive)

Q: What about the GI50 (SF-295) of the same molecule?
A: > 100 µM (inactive)

Q: And the GI50 (HL-60)?
A: > 100 µM (inactive)

Q: What about the GI50 (U-251) of the same molecule?
A: > 100 µM (inactive)

Q: What about the GI50 (HOP-62) of the same molecule?
A: > 100 µM (inactive)

Q: What about the GI50 (UO-31) of the same molecule?
A: > 100 µM (inactive)

Q: How did the GI50 (TK-10) turn out when `Cc1nc2ccc(Cl)cc2c2c1CCN2c1ccc(F)cc1` was run?
A: 18.1 µM (inactive)

Q: And the GI50 (Malme-3M)?
A: 24.8 µM (inactive)

Q: What about the GI50 (OVCAR-4) of the same molecule?
A: 5.9 µM (inactive)

Q: And the GI50 (NCI-H460)?
A: 7.03 µM (inactive)

Q: And the GI50 (MCF7)?
A: 12.2 µM (inactive)

Q: What about the GI50 (SK-MEL-2) of the same molecule?
A: 23 µM (inactive)

Q: And the GI50 (HCT-15)?
A: 36 µM

Q: What about the GI50 (DU-145) of the same molecule?
A: 58.3 µM (inactive)

Q: And the GI50 (SK-MEL-28)?
A: 20 µM (inactive)

Q: And the GI50 (SN12C)?
A: 26.5 µM (inactive)

Q: And the GI50 (CAKI-1)?
A: 18.4 µM (inactive)

Q: What about the GI50 (OVCAR-5) of the same molecule?
A: 84.9 µM (inactive)

Q: What about the GI50 (SF-295) of the same molecule?
A: 82.8 µM (inactive)

Q: And the GI50 (HL-60)?
A: 17.1 µM (inactive)

Q: What about the GI50 (U-251) of the same molecule?
A: 45.8 µM (inactive)

Q: What about the GI50 (HOP-62) of the same molecule?
A: 18.9 µM (inactive)

Q: What about the GI50 (UO-31) of the same molecule?
A: 5.4 µM (inactive)

Q: With `COC(=O)C1CCN(C(=O)OC(C)(C)C)CC1` as the molecule, how does the GI50 (TK-10) read?
A: > 100 µM (inactive)

Q: And the GI50 (Malme-3M)?
A: > 100 µM (inactive)

Q: And the GI50 (OVCAR-4)?
A: > 100 µM (inactive)

Q: What about the GI50 (NCI-H460) of the same molecule?
A: > 100 µM (inactive)

Q: And the GI50 (MCF7)?
A: > 100 µM (inactive)

Q: What about the GI50 (SK-MEL-2) of the same molecule?
A: > 100 µM (inactive)

Q: And the GI50 (HCT-15)?
A: > 100 µM

Q: And the GI50 (DU-145)?
A: > 100 µM (inactive)

Q: And the GI50 (SK-MEL-28)?
A: > 100 µM (inactive)

Q: What about the GI50 (SN12C) of the same molecule?
A: > 100 µM (inactive)

Q: And the GI50 (CAKI-1)?
A: > 100 µM (inactive)

Q: What about the GI50 (OVCAR-5) of the same molecule?
A: > 100 µM (inactive)

Q: What about the GI50 (SF-295) of the same molecule?
A: > 100 µM (inactive)

Q: What about the GI50 (HL-60) of the same molecule?
A: > 100 µM (inactive)

Q: What about the GI50 (U-251) of the same molecule?
A: > 100 µM (inactive)

Q: And the GI50 (HOP-62)?
A: > 100 µM (inactive)

Q: And the GI50 (UO-31)?
A: > 100 µM (inactive)

Q: With `COc1cccc(NC(=O)C(=O)C(C(=O)c2ccccc2F)C2OC(=O)c3ccccc32)c1` (stereo not drawn) as the molecule, how does the GI50 (TK-10) read?
A: > 100 µM (inactive)

Q: What about the GI50 (OVCAR-4) of the same molecule?
A: 36.4 µM (inactive)

Q: What about the GI50 (NCI-H460) of the same molecule?
A: 35.1 µM (inactive)

Q: What about the GI50 (SK-MEL-2) of the same molecule?
A: 22.5 µM (inactive)

Q: What about the GI50 (HCT-15) of the same molecule?
A: 28.7 µM

Q: What about the GI50 (SK-MEL-28) of the same molecule?
A: 58.6 µM (inactive)

Q: What about the GI50 (SN12C) of the same molecule?
A: 18.7 µM (inactive)

Q: And the GI50 (CAKI-1)?
A: 52.5 µM (inactive)

Q: What about the GI50 (OVCAR-5) of the same molecule?
A: 59 µM (inactive)

Q: What about the GI50 (SF-295) of the same molecule?
A: 37.7 µM (inactive)

Q: And the GI50 (DLD-1)?
A: 36.6 µM (inactive)

Q: And the GI50 (HL-60)?
A: 20.7 µM (inactive)

Q: And the GI50 (M19-MEL)?
A: 22.9 µM (inactive)

Q: What about the GI50 (U-251) of the same molecule?
A: 15.5 µM (inactive)

Q: And the GI50 (HOP-62)?
A: 42.2 µM (inactive)

Q: And the GI50 (UO-31)?
A: 34.4 µM (inactive)

Q: Which results are given for `COc1cc(-c2cc(O)c3ccccc3n2)cc(OC)c1OC`?
A: GI50 (TK-10): > 75 µM (inactive); GI50 (Malme-3M): > 75 µM (inactive); GI50 (NCI-H460): > 75 µM (inactive); GI50 (HCT-15): > 75 µM; GI50 (SK-MEL-28): > 75 µM (inactive); GI50 (SN12C): > 75 µM (inactive); GI50 (SF-295): > 75 µM (inactive); GI50 (DLD-1): > 75 µM (inactive); GI50 (HL-60): > 7.5 µM (inactive); GI50 (M19-MEL): > 75 µM (inactive); GI50 (U-251): > 75 µM (inactive); GI50 (HOP-62): > 75 µM (inactive); GI50 (UO-31): 51.3 µM (inactive)

Q: Which GI50 (TK-10) does the source give for `c1ccc(C2=NCCN2)c(C2=NCCN2)c1` here?
A: > 100 µM (inactive)

Q: What about the GI50 (Malme-3M) of the same molecule?
A: > 100 µM (inactive)

Q: What about the GI50 (OVCAR-4) of the same molecule?
A: > 100 µM (inactive)

Q: What about the GI50 (NCI-H460) of the same molecule?
A: > 100 µM (inactive)

Q: And the GI50 (MCF7)?
A: > 100 µM (inactive)

Q: And the GI50 (SK-MEL-2)?
A: > 100 µM (inactive)

Q: And the GI50 (HCT-15)?
A: 44.1 µM

Q: What about the GI50 (DU-145) of the same molecule?
A: > 100 µM (inactive)

Q: And the GI50 (SK-MEL-28)?
A: > 100 µM (inactive)

Q: What about the GI50 (SN12C) of the same molecule?
A: > 100 µM (inactive)

Q: What about the GI50 (CAKI-1) of the same molecule?
A: > 100 µM (inactive)

Q: What about the GI50 (OVCAR-5) of the same molecule?
A: > 100 µM (inactive)

Q: And the GI50 (SF-295)?
A: > 100 µM (inactive)

Q: What about the GI50 (HL-60) of the same molecule?
A: > 100 µM (inactive)

Q: What about the GI50 (U-251) of the same molecule?
A: > 100 µM (inactive)

Q: And the GI50 (HOP-62)?
A: > 100 µM (inactive)

Q: And the GI50 (UO-31)?
A: > 100 µM (inactive)
